Assay results published in patent publication US20100273656A1, “COMPOSITION AND METHOD FOR SELECTIVE HERBICIDE” (priority 2002, published 2010).

Key:
perennial ryegrass = assay: Example 17 iron chelates with Killex, perennial ryegrass; format: in vivo
Protocol: Plants were fertilized with an all purpose water-soluble fertilizer mix of 20-20-20 (N-P-K; Plant-Prod®) as needed. All broadleaf weeds were grown individually in a 2¼-inch pot until they were a suitable size for herbicide tests (actual weed size is reported in examples below). Perennial ryegrass was also grown in 2¼-inch pots, however many grass seeds were sown in the pot to simulate a small section of turf. Grass plants were continually trimmed to a height of 4 cm, simulating that of a homeowner's lawn. For field tests, plots ¼ m^2 in size were marked out in areas containing the targeted broadleaf weed species growing in turf grass. Plots were continually mowed to simulate a homeowner's lawn. […] In all of the examples, the amounts of the various herbicide components are identified as a percent on a weight basis.
Killex® (Scotts Canada, Ltd., Ontario, Canada) is a commonly used selective lawn herbicide and was used as the commercial herbicide for herbicide combinations. The labeled dilution and application rates for Killex® are 6 ml into 1 L of solution (0.6%) applied at 200 ml/m^2.
All visual plant damage assessments were made using a quantitative rating scale; percent control relative to the untreated check (0=no effect; 100=plant death).
Materials and Methods: This trial was conducted in the greenhouse. Nine pots of white clover and 10 pots of perennial ryegrass were selected for each treatment. Herbicidal solutions were prepared using deionized water. The treatments were applied using a handheld trigger sprayer at 200 ml/m^2. All treatments were applied once. Phytotoxicity (%) was assessed 4, 7, and 14 days after application (A4, A7, and A14).

[1] = tested on: dandelion (Taraxacum officinale); assay: Example 11 field test, dandelion in lawn; format: in vivo
Protocol: Killex® (Green Cross, Ontario, Canada) is a commonly used selective lawn herbicide and was included in several field tests as a standard. Killex contains 2,4-D (9.5%), mecoprop (5%) and dicamba (0.9%). The product was diluted 6 ml into 1 L of water solution and applied at rate of 200 ml/m^2, as per label instructions.
This test investigated the effect of FeHEDTA and a mixture of FeEDDS and FeMGDA on daisy (Bellis perennis), dandelion (Taraxacum officinale) and a turf bentgrass (Agrostis sp.). The chelating agents were used at one and a half times the molar amount of iron. The FeHEDTA solutions contained 0.2% iron (35.8 mM). The commercially prepared FeHEDTA product from the Monterey Chemical Company (CA, USA) was used as a standard. The (FeEDDS+FeMGDA) solutions contained 0.4% iron (71.6 mM) and the same molar amount of EDDS and MGDA. The solutions were made from NaEDDS (Octaquest E30, Octel) and NaMGDA (Trilon M liquid, BASF, Germany). Ammonium sulfate was added at a concentration of 1%. Killex (Solaris ON, Canada) was diluted and applied as per label instructions of 6 ml/L applied at 200 ml/m^2.
The daisy (0.25 m^2) and dandelion (0.5 m^2) test plots were in different areas of the bentgrass field. The dandelions were large, averaging 30 cm in diameter. The daisy patches were between 10 and 20 cm in diameter. The plants were sprayed weekly 4 times.

dandelions [2] = assay: Example 4 effect of pH on FeHEDTA, greenhouse dandelions; format: in vivo, Taraxacum officinale; conditions: for Dead (#/10): 8 + 5 days after spraying
Protocol: (§1) The following non-limiting examples serve to further describe the invention. Unless otherwise specified, all of the iron solutions were made using the same molar concentration of iron ion as chelating agent. All of the outside tests were done on areas of mixed grass and dandelions that were at least 2 months old. For the greenhouse tests, dandelions were grown in a commercial greenhouse mix, using supplemental lighting and heating. Each plant was grown in a 2¼ inch pot to a minimum diameter of 20 cm. All of the solutions were sprayed onto the plants at a rate of 100 ml/m^2. The ferrous sulfate formulations that were used in examples 1, 2, 8 and 9 contained 1% iron (180 mM), 18 mM EDTA, 1% citric acid and 0.5% urea. In all of the examples, the amount of iron is identified in brackets as the percent iron on a weight basis.
(§2) All plant damage was assessed using a qualitative rating scale from 0 to 9.
This test compared the effects of FeHEDTA at a range of pH values to potted, greenhouse-grown dandelions. All of the solutions were applied at 0.2% Fe^+3 (35.8 mM). Ammonium sulfate was added at 2%. The plants were re-sprayed after 8 days.

dandelions [3] = assay: Example 1 field test of iron chelates, dandelion damage; format: in vivo, Taraxacum officinale; conditions: sprayed once at 100 ml/m^2, 5 days after spraying
Protocol: as §1, §2
All of the iron chelates were sprayed once at 0.2% Fe^+3 (35.8 mM), at a volume of 100 ml/m^2 onto 0.5 m^2 areas of mixed grass and dandelions. The spraying of the test was followed by 2 days of rain-free weather. Observations were made 5 days after spraying.

O=C([O-])CN(CCO)CCN(CC(=O)[O-])CC(=O)[O-].[Fe+3] [FeHEDTA]
Phytotoxicity (%) against perennial ryegrass (perennial ryegrass; A4): 8% | Phytotoxicity (%) against perennial ryegrass (perennial ryegrass; A7): 7% | Phytotoxicity (%) against perennial ryegrass (perennial ryegrass; A14): 1% | Plot Area Covered by Dandelion Plants (%) ([1]; day 0 (start of test)): 80% | Dandelion Necrosis (%) ([1]; day 2): 95% | Dandelion Necrosis (%) ([1]; day 9): 98% | Plot Area Covered by Dandelion Plants (%) ([1]; day 13, sprayed weekly 4 times): 5% | Dandelion Necrosis (%) ([1]; day 16): 97% | Plot Area Covered by Dandelion Plants (%) ([1]; day 21): 10% | Dandelion Necrosis (%) ([1]; day 23): 97% | Plot Area Covered by Dandelion Plants (%) ([1]; day 26): 8% | Plant Damage (0 to 9) (dandelions [2]; 8 + 5 days after spraying (re-sprayed after 8 days), listed as FeHEDTA pH 3 (0.2% Fe)): 6.8 0 to 9 | Plant Damage (0 to 9) (dandelions [2]; 8 + 5 days after spraying (re-sprayed after 8 days), listed as FeHEDTA pH 5 (0.2% Fe)): 5.4 0 to 9 | Plant Damage (0 to 9) (dandelions [2]; 8 + 5 days after spraying (re-sprayed after 8 days), listed as FeHEDTA pH 7 (0.2% Fe)): 5.1 0 to 9 | Plant Damage (0 to 9) (dandelions [2]; 8 + 5 days after spraying (re-sprayed after 8 days), listed as FeHEDTA pH 9 (0.2% Fe)): 3.6 0 to 9 | Plant Damage (0 to 9) (dandelions [2]; 8 + 5 days after spraying (re-sprayed after 8 days), listed as FeHEDTA pH 11 (0.2% Fe)): 6.6 0 to 9 | Dead (#/10) (dandelions [2]; listed as FeHEDTA pH 3 (0.2% Fe)): 5 #/10 | Dead (#/10) (dandelions [2]; listed as FeHEDTA pH 5 (0.2% Fe)): 3 #/10 | Dead (#/10) (dandelions [2]; listed as FeHEDTA pH 7 (0.2% Fe)): 2 #/10 | Dead (#/10) (dandelions [2]; listed as FeHEDTA pH 9 (0.2% Fe)): 1 #/10 | Dead (#/10) (dandelions [2]; listed as FeHEDTA pH 11 (0.2% Fe)): 5 #/10 | Plant Damage (0 to 9) (dandelions [2]; 7 days after spraying, listed as FeHEDTA pH 3 (0.2% Fe)): 3.2 0 to 9 | Plant Damage (0 to 9) (dandelions [2]; 7 days after spraying, listed as FeHEDTA pH 5 (0.2% Fe)): 2.6 0 to 9 | Plant Damage (0 to 9) (dandelions [2]; 7 days after spraying, listed as FeHEDTA pH 7 (0.2% Fe)): 1.9 0 to 9 | Plant Damage (0 to 9) (dandelions [2]; 7 days after spraying, listed as FeHEDTA pH 9 (0.2% Fe)): 2.0 0 to 9 | Plant Damage (0 to 9) (dandelions [2]; 7 days after spraying, listed as FeHEDTA pH 11 (0.2% Fe)): 3.8 0 to 9 | Dandelion Damage (0 to 9) (dandelions [3]): 8.9 0 to 9
